Laboratory results from patent US8754209B2, “Indazole derivatives or pharmaceutically acceptable salts thereof as protein kinase inhibitors for proliferative diseases treatment, and a pharmaceutical composition containing the same as an active ingredient” (Korea Institute of Science and Technology, priority 2009, dated 2014).
Blank lines part the entries; values can stand above or below the molecule they belong to.

Key:
B-Raf-V600E = B-Raf-V600E (Homo sapiens, UniProt P15056, V600E); assay: B-Raf kinase enzyme assay (MEK1/Erk2 cascade, MBP phosphorylation, 32P); type: biochemical; settings: read-out: b-raf-V600Ekinase inhibitory activity (IC50)
Method: <1-1> Activation of MAP Kinase 2/Erk2 by B-raf
10 μl magnesium chloride/ATP solution (500 uM ATP, 75 mM magnesium chloride) was seeded in eppendorf tube. 2.5 μl B-Raf-V600E was seed (final conc. 1 ng) in eppendorf tube and treated with 1.6 μl deactivated MEK1 (final conc. 0.4 μg). The mixture was treated with 4 μl deactivated MAP kinase 2/Erk2 (final conc. 1.0 ug). And the mixture was treated with 1 μl example solution (10 mM) dissolved in dimethyl sulfoxide which was orderly diluted. Then, assay dilution buffer I (ADBI I) was added thereto (final vol. 38 μl) to make the final volume of 38 μl, and made it reacted at 30° C. for 30 min. 5 μl of resulting solution was used for the following experiment.
<1-2> Phosphorylation of Myelin basic protein (MBP)
5 μl of the above resulting solution was treated with 10 μl assay dilution buffer, and then treated with 10 μl Myelin basic protein (MBP, 2 mg/Ml). The mixture solution was treated with 10 μl of diluted (1/10) [γ^32P] ATP (100 uCi/vial) which is diluted at 30° C. for 10 min. 25 μl of the mixture solution was spotted onto a P81 paper, and the paper was washed four times with 0.75% phosphoric acid for 10 min and once with acetone for 5 min in scintillation vial. After 5 Ml of scintillation cocktail solution was added in the scintillation vial, signals were analyzed by scintillation counter.

A375P cells = assay: Anti-proliferative activity on A375P cell line (MTT assay); type: cell-based; settings: A375P human melanoma cell line
Method: A375P cells were purchased from American Type Culture Collection (ATCC, Rockville, Md., US) and maintained in DMEM medium (Welgene, Daegu, Korea) supplemented with 10% FBS (Welgene) and 1% penicillin/streptomycin (Welgene) in a humidified atmosphere with 5% CO2 at 37° C. The A375P cells were taken from culture substrate with 0.05% trypsin-0.02% EDTA and plated at a density of 5×10^3 cells/well in 96 well plates and then incubated at 37° C. for 24 h in a humidified atmosphere with 5% CO2 prior to treatment of various concentration (three fold serial dilution, 12 points) of test compounds. The A357P cell viability was assessed by the conventional 3-(4,5-dimethylthiazol-2-yl)-2,5-diphenyltetrazolium bromide (MTT) reduction assay. MTT assays were carried out with CellTiter 96 (Promega) according to the manufacturer's instructions.
After 1 day, 0.5 μl the representative compounds of the examples were added thereto. The representative compounds of the examples were prepared by three fold serial dilution of 10 mM stock solution in DMSO, 12 point (final conc. DMSO 0.5%). Then, 15 μl dye was added in each well. After 2 h, 100 μl stop solution was added each well. After 24 h, absorbance was measured. The absorbance at 590 nm was recorded using EnVision2103 (PerkinElmer; Boston, Mass., US). The IC50 value was calculated using GraphPad Prism 4.0 software.

SAPK2a (h) = SAPK2a (h) (Homo sapiens, UniProt Q16539); assay: Kinase activity profiling service (Millipore); type: biochemical; settings: read-out: Kinase inhibitory activity (IC50, uM) SAPK2a (h)
Description: (§1) Also, as mentioned above we tested kinase activities of the representative compounds of the examples using Kinase activity profiling service (Millipore UK Ltd Gemini Crescent, Dundee Technology Park, Dundee DD2 1SW, UK).

Fms (h) = Fms (h) (Homo sapiens, UniProt P07333); assay: Kinase activity profiling service (Millipore); type: biochemical; settings: read-out: Kinase inhibitory activity (IC50, uM) Fms (h)
Description: as §1

KDR (h) = KDR (h) (Homo sapiens, UniProt P35968); assay: Kinase activity profiling service (Millipore); type: biochemical; settings: read-out: Kinase inhibitory activity (IC50, uM) KDR (h)
Description: as §1

c-RAF (h) = c-RAF (h) (Homo sapiens, UniProt P04049); assay: Kinase activity profiling service (Millipore); type: biochemical; settings: read-out: Kinase inhibitory activity (IC50, uM) c-RAF (h)
Description: as §1

Tie2 (h) = Tie2 (h) (Homo sapiens, UniProt Q02763); assay: Kinase activity profiling service (Millipore); type: biochemical; settings: read-out: Kinase inhibitory activity (IC50, uM) Tie2 (h)
Description: as §1

Ret (h) = Ret (h) (Homo sapiens, UniProt P07949); assay: Kinase activity profiling service (Millipore); type: biochemical; settings: read-out: Kinase inhibitory activity (IC50, uM) Ret (h)
Description: as §1

T3151-Bcr-Abl = settings: cited from earlier work
A375 melanoma cell line = settings: raf-V660E overexpression cell strain; read-out: anti-proliferative activity IC50, A375 melanoma cell line; cited from earlier work
[1] = cited from earlier work

Fms (h), sequence (P07333 20-972): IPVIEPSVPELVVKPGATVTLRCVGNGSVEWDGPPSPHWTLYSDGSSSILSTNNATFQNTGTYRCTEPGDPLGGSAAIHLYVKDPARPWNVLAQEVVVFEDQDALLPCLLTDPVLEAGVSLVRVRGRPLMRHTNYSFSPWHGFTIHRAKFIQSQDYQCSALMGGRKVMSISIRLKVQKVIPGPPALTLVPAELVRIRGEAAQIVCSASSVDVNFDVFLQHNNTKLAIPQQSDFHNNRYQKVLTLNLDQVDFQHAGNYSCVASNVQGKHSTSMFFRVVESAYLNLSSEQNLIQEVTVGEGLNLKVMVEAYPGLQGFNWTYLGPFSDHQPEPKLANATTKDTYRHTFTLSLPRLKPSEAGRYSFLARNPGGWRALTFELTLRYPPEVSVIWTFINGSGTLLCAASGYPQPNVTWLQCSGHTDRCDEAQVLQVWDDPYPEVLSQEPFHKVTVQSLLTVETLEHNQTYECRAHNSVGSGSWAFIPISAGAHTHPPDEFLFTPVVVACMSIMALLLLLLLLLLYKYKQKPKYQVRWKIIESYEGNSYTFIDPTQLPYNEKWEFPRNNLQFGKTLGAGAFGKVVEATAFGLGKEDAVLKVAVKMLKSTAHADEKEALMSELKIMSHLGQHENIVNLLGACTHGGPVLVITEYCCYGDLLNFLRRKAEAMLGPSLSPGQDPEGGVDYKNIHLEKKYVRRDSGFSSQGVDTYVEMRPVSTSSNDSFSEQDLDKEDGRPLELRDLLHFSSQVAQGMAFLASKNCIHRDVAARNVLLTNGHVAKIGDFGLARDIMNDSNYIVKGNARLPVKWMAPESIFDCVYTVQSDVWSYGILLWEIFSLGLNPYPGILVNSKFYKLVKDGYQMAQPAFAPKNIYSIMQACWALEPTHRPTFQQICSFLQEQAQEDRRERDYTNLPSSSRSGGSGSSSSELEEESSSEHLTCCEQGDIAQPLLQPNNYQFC
KDR (h), sequence (P35968 20-1356): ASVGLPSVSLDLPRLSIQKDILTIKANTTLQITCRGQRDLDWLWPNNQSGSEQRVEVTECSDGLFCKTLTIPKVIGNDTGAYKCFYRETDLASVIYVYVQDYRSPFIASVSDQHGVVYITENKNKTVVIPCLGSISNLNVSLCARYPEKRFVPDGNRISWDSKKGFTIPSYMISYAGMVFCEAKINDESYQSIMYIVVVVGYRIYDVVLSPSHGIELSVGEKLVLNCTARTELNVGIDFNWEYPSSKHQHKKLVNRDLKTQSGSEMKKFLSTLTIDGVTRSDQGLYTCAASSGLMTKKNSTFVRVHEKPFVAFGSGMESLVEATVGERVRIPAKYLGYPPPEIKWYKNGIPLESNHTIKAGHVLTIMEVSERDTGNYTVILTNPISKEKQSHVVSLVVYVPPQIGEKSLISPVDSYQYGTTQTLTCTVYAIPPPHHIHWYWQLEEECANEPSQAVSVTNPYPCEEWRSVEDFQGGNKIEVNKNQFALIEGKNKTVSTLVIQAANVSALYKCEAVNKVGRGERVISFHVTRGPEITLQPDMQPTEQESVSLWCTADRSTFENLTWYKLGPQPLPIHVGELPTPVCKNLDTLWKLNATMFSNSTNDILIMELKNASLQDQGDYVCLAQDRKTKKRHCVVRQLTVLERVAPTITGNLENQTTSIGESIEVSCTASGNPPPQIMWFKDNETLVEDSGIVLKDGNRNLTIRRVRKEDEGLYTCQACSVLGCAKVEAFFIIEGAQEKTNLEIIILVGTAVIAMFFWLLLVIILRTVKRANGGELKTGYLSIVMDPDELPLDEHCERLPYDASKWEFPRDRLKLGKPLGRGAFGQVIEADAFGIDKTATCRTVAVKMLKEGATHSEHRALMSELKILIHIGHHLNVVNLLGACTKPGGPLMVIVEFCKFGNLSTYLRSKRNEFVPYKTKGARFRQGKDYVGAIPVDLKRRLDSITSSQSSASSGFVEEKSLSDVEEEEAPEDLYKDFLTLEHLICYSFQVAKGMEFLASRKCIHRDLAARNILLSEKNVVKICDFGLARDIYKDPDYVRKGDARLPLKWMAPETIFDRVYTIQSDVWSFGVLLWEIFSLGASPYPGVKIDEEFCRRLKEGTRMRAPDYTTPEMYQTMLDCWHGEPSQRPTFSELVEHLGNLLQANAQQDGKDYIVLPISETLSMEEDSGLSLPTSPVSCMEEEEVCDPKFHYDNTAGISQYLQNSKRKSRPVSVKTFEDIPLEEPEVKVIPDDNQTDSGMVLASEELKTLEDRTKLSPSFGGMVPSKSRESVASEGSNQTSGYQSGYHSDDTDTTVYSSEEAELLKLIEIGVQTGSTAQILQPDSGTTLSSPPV
B-Raf-V600E, sequence (P15056 whole entry V600E): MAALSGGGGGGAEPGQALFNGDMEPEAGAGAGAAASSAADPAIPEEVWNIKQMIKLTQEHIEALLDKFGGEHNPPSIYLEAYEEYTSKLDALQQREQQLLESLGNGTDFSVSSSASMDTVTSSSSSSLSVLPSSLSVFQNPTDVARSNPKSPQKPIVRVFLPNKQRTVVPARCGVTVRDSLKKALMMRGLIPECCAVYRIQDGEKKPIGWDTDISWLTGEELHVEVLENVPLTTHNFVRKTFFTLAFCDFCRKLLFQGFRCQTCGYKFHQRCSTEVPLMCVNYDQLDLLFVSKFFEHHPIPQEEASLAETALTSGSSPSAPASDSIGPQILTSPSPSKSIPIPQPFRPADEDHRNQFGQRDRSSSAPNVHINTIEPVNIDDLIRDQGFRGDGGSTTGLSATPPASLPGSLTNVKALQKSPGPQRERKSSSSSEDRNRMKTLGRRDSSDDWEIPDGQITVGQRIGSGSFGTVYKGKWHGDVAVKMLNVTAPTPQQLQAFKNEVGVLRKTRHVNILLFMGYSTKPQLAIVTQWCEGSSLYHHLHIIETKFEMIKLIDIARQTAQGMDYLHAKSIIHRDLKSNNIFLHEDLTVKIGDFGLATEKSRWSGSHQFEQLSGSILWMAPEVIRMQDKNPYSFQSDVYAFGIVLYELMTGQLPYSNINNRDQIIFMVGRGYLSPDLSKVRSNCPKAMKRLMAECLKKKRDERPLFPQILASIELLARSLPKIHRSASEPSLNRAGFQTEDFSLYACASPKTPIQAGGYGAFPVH
c-RAF (h), sequence (P04049 whole entry): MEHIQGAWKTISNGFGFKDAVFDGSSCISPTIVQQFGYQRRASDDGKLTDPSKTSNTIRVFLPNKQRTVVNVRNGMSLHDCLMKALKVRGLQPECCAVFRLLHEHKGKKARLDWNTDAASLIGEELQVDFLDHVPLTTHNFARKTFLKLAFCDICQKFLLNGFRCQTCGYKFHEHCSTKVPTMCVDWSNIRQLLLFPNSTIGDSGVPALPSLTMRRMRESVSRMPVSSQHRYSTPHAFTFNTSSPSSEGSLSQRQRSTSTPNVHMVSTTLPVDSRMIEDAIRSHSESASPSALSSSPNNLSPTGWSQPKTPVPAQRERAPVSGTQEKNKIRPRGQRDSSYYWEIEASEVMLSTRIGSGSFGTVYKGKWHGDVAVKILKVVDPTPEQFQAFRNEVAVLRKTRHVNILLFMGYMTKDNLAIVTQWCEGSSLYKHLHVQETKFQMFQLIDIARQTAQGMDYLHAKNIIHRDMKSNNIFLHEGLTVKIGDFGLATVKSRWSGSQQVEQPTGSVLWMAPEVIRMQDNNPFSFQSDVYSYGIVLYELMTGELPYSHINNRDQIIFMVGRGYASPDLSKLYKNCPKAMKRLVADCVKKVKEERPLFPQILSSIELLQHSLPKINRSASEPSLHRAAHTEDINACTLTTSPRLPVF
Tie2 (h), sequence (Q02763 23-1124): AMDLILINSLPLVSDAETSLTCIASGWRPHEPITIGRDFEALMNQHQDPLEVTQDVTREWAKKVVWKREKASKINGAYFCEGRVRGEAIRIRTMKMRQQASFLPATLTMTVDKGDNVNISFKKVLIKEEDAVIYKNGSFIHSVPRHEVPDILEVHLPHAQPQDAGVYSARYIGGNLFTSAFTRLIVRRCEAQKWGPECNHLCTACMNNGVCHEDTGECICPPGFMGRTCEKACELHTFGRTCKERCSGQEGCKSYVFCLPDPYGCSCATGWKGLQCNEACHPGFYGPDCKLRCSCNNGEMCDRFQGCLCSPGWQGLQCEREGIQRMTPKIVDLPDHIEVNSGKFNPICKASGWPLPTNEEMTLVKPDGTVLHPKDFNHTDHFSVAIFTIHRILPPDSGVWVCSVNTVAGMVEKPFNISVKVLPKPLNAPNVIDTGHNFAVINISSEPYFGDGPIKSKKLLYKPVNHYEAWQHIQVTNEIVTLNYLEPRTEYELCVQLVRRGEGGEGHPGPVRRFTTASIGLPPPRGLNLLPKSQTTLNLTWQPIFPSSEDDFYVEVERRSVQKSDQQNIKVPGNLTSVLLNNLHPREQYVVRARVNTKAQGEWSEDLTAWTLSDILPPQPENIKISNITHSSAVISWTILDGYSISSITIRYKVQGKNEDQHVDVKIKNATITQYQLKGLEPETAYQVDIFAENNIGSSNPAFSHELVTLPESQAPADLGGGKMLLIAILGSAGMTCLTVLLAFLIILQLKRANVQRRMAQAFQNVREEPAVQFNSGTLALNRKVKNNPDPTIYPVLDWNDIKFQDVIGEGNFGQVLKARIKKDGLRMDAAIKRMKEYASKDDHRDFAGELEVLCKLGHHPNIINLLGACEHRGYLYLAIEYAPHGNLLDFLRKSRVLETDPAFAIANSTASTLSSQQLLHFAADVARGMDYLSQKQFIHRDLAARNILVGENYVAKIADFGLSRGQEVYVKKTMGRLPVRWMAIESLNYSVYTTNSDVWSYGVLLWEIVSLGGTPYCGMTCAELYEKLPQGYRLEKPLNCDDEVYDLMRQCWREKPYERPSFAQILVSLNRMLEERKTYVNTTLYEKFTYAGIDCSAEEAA

IC50 (B-Raf-V600E): < 10 µM
GI50 (A375P cells): < 10 µM
IC50 (SAPK2a (h)): 167 µM
IC50 (Fms (h)): 141 µM
IC50 (KDR (h)): 332 µM
IC50 (c-RAF (h)): 137 µM
IC50 (Tie2 (h)): 1510 µM
IC50 (Ret (h)): 603 µM
SMILES: Cc1ccc(NC(=O)Nc2ccc(Cl)c(C(F)(F)F)c2)cc1-c1ccc2c(C(=O)NCCN3CCOCC3)n[nH]c2c1 [Example 64, 6-(5-(3-(4-chloro-3-(trifluoromethyl)phenyl)ureido)-2-methylphenyl)-N-(2-morpholinoethyl)-1H-indazole-3-carboxamide]

SMILES: Cc1cn(-c2cc(NC(=O)c3ccc(C)c(Nc4nccc(-c5cccnc5)n4)c3)cc(C(F)(F)F)c2)cn1 [Nilotinib]
activity on T3151-Bcr-Abl (T3151-Bcr-Abl): inactive

SMILES: CCCS(=O)(=O)Nc1ccc(F)c(C(=O)c2c[nH]c3ncc(Cl)cc23)c1F [PLX-4720]
IC50 (A375 melanoma cell line): 0.5 µM

SMILES: CNC(=O)c1cc(Oc2ccc(NC(=O)Nc3ccc(Cl)c(C(F)(F)F)c3)cc2)ccn1 [Sorafenib]
skin toxicity side effect, grade ([1]; 600 mg twice a day): 3
MTD (maximum tolerated dose) ([1]; twice a day, phase II clinical investigation): 400 mg
